Test results published in ChEMBL document CHEMBL5365498, “Regulation of Eukaryotic Translation Initiation Factor 4E as a Potential Anticancer Strategy” (J Med Chem, 2023).

Key:
A549 = assay: Anticancer activity against human A549 cells assessed as cell growth inhibition measured after 72 hrs by CCK-8 assay; type: functional, cell-based; conditions: A549, 72 h
MCF7 = assay: Anticancer activity against human MCF7 cells assessed as cell growth inhibition measured after 72 hrs by CCK-8 assay; type: functional, cell-based; conditions: MCF7, 72 h
[1] = target: Serine/threonine-protein kinase mTOR (Homo sapiens, UniProt P42345); assay: Inhibition of human mTOR (1360 to 2549 residues) measured after 2 hrs in presence of ATP by LANCE Ultra kinase assay
[2] = Anticancer activity against Breast carcinoma cell (unknown origin) assessed as cell growth inhibition; type: functional, cell-based
Lung cancer cell line = assay: Anticancer activity against Lung cancer cell line (unknown origin) assessed as cell growth inhibition; type: functional, cell-based
Melanoma tumor cell line = assay: Anticancer activity against Melanoma tumor cell line (unknown origin) assessed as cell growth inhibition; type: functional, cell-based
[3] = Anticancer activity against Cervical carcinoma cell line (unknown origin) assessed as cell growth inhibition; type: functional, cell-based

| SMILES | IC50 (A549) | IC50 (MCF7) | IC50 [1] | IC50 [2] | IC50 (Lung cancer cell line) | IC50 (Melanoma tumor cell line) | IC50 [3] |
| --- | --- | --- | --- | --- | --- | --- | --- |
| CNC(=O)Nc1ccc(-c2nc(N3CCOCC3)nc3c2C=NC3C2CCOCC2)cc1 (configuration not stated) | 230 nM | 600 nM | 23.2 nM |  |  |  |  |
| Oc1cccc(-c2nc(N3CCOCC3)c3oc4ncccc4c3n2)c1 [PI-103] |  |  |  | 20 nM | 20 nM | 20 nM | 20 nM |
